# Source: patent publication EP0679645A1, “Pharmacologically active CNS pyridmidin compounds” (THE WELLCOME FOUNDATION LIMITED, priority 1990, dated 1991)
# Legend:
# [1] = tested on: veratrine-evoked release of glutamate; assay: Inhibition of veratrine-evoked release of glutamate from rat brain slices; type: cell-based; conditions: P95 limits in brackets, read-out: IC₅₀(µM) Glutamate Release (P95 limits)
# Method: (§1) Compounds according to the invention were tested for their effect on veratrine-evoked release of glutamate from rat brain slices according to the protocol described in Epilepsia 27(5): 490-497, 1986. The protocol for testing for inhibition of DHFR activity was a modification of that set out in Biochemical Pharmacology Vol. 20 pp 561-574, 1971.
# (§2) The results are given in Table 1, the IC₅₀ being the concentration of compound to cause 50% inhibition of (a) veratrine-evoked release of glutamate and (b) of DHFR enzyme activity.
# Rat Liver DHFR = target: T1, Rat Liver DHFR (Rattus norvegicus, UniProt Q920D2); assay: Inhibition of rat liver DHFR enzyme activity; type: biochemical; conditions: P95 limits in brackets, read-out: IC₅₀(µM) Rat Liver DHFR (P95 limits)
# T1 construct: from tissue; host or cells: rat liver
# T1 sequence (Q920D2 1-187): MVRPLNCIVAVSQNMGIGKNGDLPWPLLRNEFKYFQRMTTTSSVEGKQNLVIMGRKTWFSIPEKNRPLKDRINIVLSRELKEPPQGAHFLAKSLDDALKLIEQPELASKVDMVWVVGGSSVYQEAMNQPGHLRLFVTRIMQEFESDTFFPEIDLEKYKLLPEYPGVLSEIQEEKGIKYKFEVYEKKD
# Method: as §1, §2
# Half-life in the rat = type: in vivo; conditions: statement in words
Compound,IC50 [1] [µM],IC50 (Rat Liver DHFR) [µM],half-life in the rat (Half-life in the rat)
"Nc1nc(N)c(-c2cc(Cl)cc(Cl)c2)c(C(F)(F)F)n1 [Compound 1, 2,4-Diamino-5-(3,5-dichlorophenyl)-6-trifluoromethyl pyrimidine]",< 10,4.59,–
"Cc1nc(N)nc(N)c1-c1c(Cl)ccc(Cl)c1Cl [Compound 2, 2,4-Diamino-6-methyl-5-(2,3,6-trichlorophenyl)pyrimidine]",< 10,> 100,–
"Nc1ncc(-c2cc(Cl)c(N)c(Cl)c2Cl)c(N)n1 [Compound 3, 2,4-Diamino-5-(4-amino-2,3,5-trichlorophenyl)pyrimidine]",2.5,> 100,–
"Cc1nc(N2CCN(C)CC2)nc(N)c1-c1cc(Cl)c(Cl)c(Cl)c1 [Compound 4, 4-Amino-2-(4-methyl-1-piperazinyl)-6-methyl-5-(3,4,5-trichlorophenyl)pyrimidine]",< 10,100,–
"Cc1nc(N)nc(N)c1-c1cc(Cl)c(Cl)c(Cl)c1 [Compound 5, 2,4-Diamino-5-(3,4,5-trichlorophenyl)-6-methyl pyrimidine]",< 10,< 100,–
"CCN(CC)c1ncc(-c2cc(Cl)cc(Cl)c2Cl)c(N)n1 [Compound 6, 4-Amino-2-diethylamino-5-(2,3,5-trichlorophenyl)pyrimidine]",10,> 100,–
"CC(C)Nc1ncc(-c2cc(Cl)cc(Cl)c2Cl)c(N)n1 [Compound 7, 4-Amino-2-(2-iso-propylamino)-5-(2,3,5-trichlorophenyl)pyrimidine]",< 10,> 100,–
"CN1CCN(c2ncc(-c3cc(Cl)cc(Cl)c3)c(N)n2)CC1 [Compound 8, 4-Amino-5-(3,5-dichlorophenyl)-2-(4-methyl-1-piperazinyl)pyrimidine]",0.27,> 100,long half-life
"Nc1ncc(-c2cc(Cl)c(I)c(Cl)c2Cl)c(N)n1 [Compound 9, 2,4-Diamino-5-(4-iodo-2,3,5-trichlorophenyl)pyrimidine]",< 10,> 100,–
"C[N+]1([O-])CCN(c2nc(N)c(-c3cc(Cl)cc(Cl)c3Cl)c(C(F)(F)F)n2)CC1 [Compound 10, 4-Amino-2-(4-methyl-4-oxide-1-piperazinyl)-5-(2,3,5-trichlorophenyl)-6-trifluoromethyl-pyrimidine]",> 10,> 100,–
"COCc1nc(N2CCN(C)CC2)nc(N)c1-c1cc(Cl)cc(Cl)c1 [Compound 11, 4-Amino-5-(3,5-dichlorophenyl)-6-methoxymethyl-2-(4-methyl-1-piperazinyl)pyrimidine]",< 10,> 100,–
"CN(C)S(=O)(=O)c1c(Cl)cc(-c2cnc(N)nc2N)c(Cl)c1Cl [Compound 12, 2,4-Diamino-5[4-(N',N'-dimethylsulphamoyl)-2,3,5-trichlorophenyl]pyrimidine]",< 10,13.8,–
"CN1CCN(c2nc(N)c(-c3cc(Cl)cc(Cl)c3)c(C(F)(F)F)n2)CC1 [Compound 14, 4-Amino-5-(3,5-dichlorophenyl)-2-(4-methyl-1-piperazinyl)-6-trifluoromethyl pyrimidine]",0.137,> 100,–
"Nc1ncc(-c2cc(Cl)c(Cl)c(Cl)c2Cl)c(N)n1 [Compound 15, 2,4-Diamino-5-(2,3,4,5-tetrachlorophenyl)pyrimidine]",< 10,> 100,–
"C[C@@H]1CN(c2ncc(-c3cc(Cl)cc(Cl)c3Cl)c(N)n2)C[C@H](C)N1 [Compound 16, cis 4-Amino-2-(3,5-dimethyl-1-piperazinyl)-5-(2,3,5-trichlorophenyl)pyrimidine]",10,> 100,–
"CCCN1CCN(c2ncc(-c3cc(Cl)cc(Cl)c3Cl)c(N)n2)CC1 [Compound 17, 4-Amino-2-(4-n-propyl-1-piperazinyl)-5-(2,3,5-trichlorophenyl)pyrimidine]",2.17,> 100,–
"C[N+]1([O-])CCN(c2ncc(-c3cc(Cl)cc(Cl)c3Cl)c(N)n2)CC1 [Compound 18, 4-Amino-2-(4-methyl-4-oxide-1-piperazinyl)-5-(2,3,5-trichlorophenyl)pyrimidine]",> 10,> 100,–
"Cc1nc(N)nc(N)c1-c1cc(Cl)cc(Cl)c1[N+](=O)[O-] [Compound 19, 2,4-Diamino-5-(3,5-dichloro-2-nitrophenyl)-6-methyl-pyrimidine]",< 10,5.56,–
"CN1CCN(c2nc(N)ncc2-c2cccc(Cl)c2Cl)CC1 [Compound 20, 2-Amino-5-(2,3-dichlorophenyl)-4-(4-methyl-1-piperazinyl)pyrimidine]",10,> 100,–
"Nc1ncc(-c2cccc(Cl)c2Cl)c(N2CCOCC2)n1 [Compound 21, 2-Amino-5-(2,3-dichlorophenyl)-4-(N-morpholino)pyrimidine]",10,> 100,–
"Nc1nc(N2CCN(Cc3ccccc3)CC2)ncc1-c1cc(Cl)cc(Cl)c1Cl [Compound 22, 4-Amino-2-(4-benzyl-1-piperazinyl)-5-(2,3,5-trichlorophenyl)pyrimidine]",> 10,< 100,–
"Nc1ncc(-c2cc(Cl)c(N)c(Cl)c2)c(N)n1 [Compound 25, 2,4-Diamino-5-(3,5-dichloro-4-aminophenyl)pyrimidine]",> 10,0.034,–
"Cc1nc(N)nc(N)c1-c1cc(Cl)c(N)c(Cl)c1 [Compound 26, 2,4-Diamino-5-(3,5-dichloro-4-aminophenyl)-6-methyl pyrimidine]",< 10,0.034,–
"Nc1nc(N)c(-c2cc(Cl)c(N)c(Cl)c2)c(C(F)(F)F)n1 [Compound 27, 2,4-Diamino-5-(3,5-dichloro-4-aminophenyl)-6-trifluoromethyl pyrimidine]",10,1.54,–
"CCCCN1CCN(c2ncc(-c3cc(Cl)cc(Cl)c3Cl)c(N)n2)CC1 [Compound 28, 4-Amino-2-(4-n-butyl-1-piperazinyl)-5-(2,3,5-trichlorophenyl)pyrimidine]",< 10,> 100,–
"CCN1CCN(c2ncc(-c3cc(Cl)cc(Cl)c3Cl)c(N)n2)CC1 [Compound 29, 4-Amino-2-(4-ethyl-1-piperazinyl)-5-(2,3,5-trichlorophenyl)pyrimidine]",2.56,> 100,–
"CC(C)N1CCN(c2ncc(-c3cc(Cl)cc(Cl)c3Cl)c(N)n2)CC1 [Compound 30, 4-Amino-2-(4-isopropyl-1-piperazinyl)-5-(2,3,5-trichlorophenyl)pyrimidine]",< 10,100,–
"Nc1nc(N2CCN(C3CC3)CC2)ncc1-c1cc(Cl)cc(Cl)c1Cl [Compound 31, 4-Amino-2-(4-cyclopropyl-1-piperazinyl)-5-(2,3,5-trichlorophenyl)pyrimidine]",10,> 100,–
"CCN1CCN(c2nc(N)c(-c3cc(Cl)cc(Cl)c3)c(C(F)(F)F)n2)CC1 [Compound 32, 4-Amino-2-(4-ethyl-1-piperazinyl)-5-(3,5-dichlorophenyl)-6-trifluoromethyl pyrimidine]",2.43,> 100,–
